Where two headings read alike, the source gives them in different places.
Key:
human δ opioid receptor [1] = biological target: T1, human δ opioid receptor (Homo sapiens, UniProt P41143); assay: biochemical
human μ opioid receptor [2] = biological target: T2, human μ opioid receptor (Homo sapiens, UniProt P35372); assay: Opioid receptor binding assay, [3H]DAMGO (μ)
human κ opioid receptor [3] = biological target: T3, human κ opioid receptor (Homo sapiens, UniProt P41145); assay: Opioid receptor binding assay, [3H]U69,593 (κ); conditions: for K: δ / K: μ: ratio of Ki values
human δ opioid receptor [4] = biological target: T1, human δ opioid receptor
[5] = tested on: morphine's blockade of PGE2-induced diarrhea; assay: PGE2 model of gut motility; type: in vivo, mice
Experimental: To assess the effects of novel, peripherally acting opioid antagonists, we used a PGE2 (a prostaglandin) model of gut motility. PGE2 induces diarrhea within 15 minutes of an intraperitoneal (IP) injection (0.1 mg/kg) in mice.
Mice (n=10/group) were given either an IP injection or oral (PO) administration (via gavage) of a novel opioid antagonist (0-3 mg/kg, IP; 0-30 mg/kg, PO) and placed in a Plexiglas pie cage (Braintree Scientific, Braintree, Mass.). Each pie cage holds up to 10 mice and is 21.5 cm in diameter and 7.5 cm in height. Individual chambers are 5 cm (base) and 9 cm (length). […] 30 minutes later mice were treated with PGE2 (0.1 mg/kg, IP) and again returned to the pie cage. During the final observation, the presence or absence of diarrhea was recorded 15 minutes following PGE2 administration. Mice were only tested once. Saline-saline (10 mL/kg, IP) and saline-morphine were the positive control groups and all results were compared to the saline-morphine treatment group. Data represent the percent of mice with PGE2-induced diarrhea at the time of the final observation.

[6] = tested on: morphine-induced antinociception (tail flick); assay: Tail flick antinociception test; type: in vivo, mice; conditions: for effect on response to morphine, tail flick: oral
Experimental: Antinociception to acute thermal stimuli was assessed using a commercially available tail flick apparatus (Columbus Instruments, Columbus, Ohio). The tail flick test is purported to be primarily a […] reflexive response assay. In this standard model, mice are gently restrained and their tail is placed over a thermal beam. Once the beam is turned on (instant on; 9.3 watts), the time required to reflexively flick the tail is recorded. The maximum response latency (MRL) was set to 10 seconds to avoid potential thermal injury associated with longer exposure times. If there is no response after 10 seconds, mice are removed and the maximum response latency (MRL; 10 s) is recorded.
Mice (n=10/group) were first tested in the tail flick test to determine a baseline response. […] The mice were administered different doses of an opioid antagonist (IP or PO, 60 minutes prior to testing in the tail flick test). […] All results are compared to the saline-morphine treatment group mean response latency.

[7] = tested on: morphine-induced antinociception (hot plate); assay: Hot plate antinociception test; type: in vivo, mice
Experimental: Antinociception to acute thermal stimuli was assessed using a commercially available hot plate apparatus (Columbus Instruments, Columbus, Ohio). The hot plate test is purported to be a supraspinal assay of nociception. The hot plate procedure involves placing each mouse on a heated surface and activating a timer. Mice were placed individually on a hot plate (25.4 cm×25.4 cm surrounded by an acrylic box to prevent the animal from escaping); surface temperature=55° C.) and the response latency to lick either hind paw was recorded. The maximum response latency (MRL) was set to 60 seconds to avoid potential thermal injury associated with longer exposure times. The mouse is removed from the heated surface when it either licks a hind paw in response to the heat or after 60 seconds has elapsed. The latency to respond is recorded and the mouse is returned to its home cage.
Mice (n=10/group) were first tested to determine a baseline response. […] Mice were then administered different doses of an opioid antagonist (IP or PO, 60 minutes prior to testing on the hot plate test). […] All results are compared to the saline-morphine treatment group mean response latency.

[8] = PK evaluation in rats (plasma, LC-MS/MS); type: in vivo; conditions: oral administration, FIG. 4
Experimental: Animals were dosed with the example compound and blood samples were collected for 2 hours using the following method. Rats were briefly anesthetized with 1-2% isoflurane and blood samples (approximately […] of whole blood) from a lateral tail vein were collected into tubes containing EDTA. The tubes were centrifuged at 10K×g for 2 minutes to separate plasma. Plasma was pipetted into microcentrifuge vials and stored at −80° C. until plasma levels were determined by liquid chromatography-mass spectrometry/mass spectrometry (LC-MS/MS) (modification of Baranczewski et al., 2006). The lower limit of quantitation (LOQ) for these studies was 1.0 ng/mL and the coefficient of variation for the assay was <4.4%. The mean concentration of the example compound in plasma was calculated for each time point. […]
A bioanalytical assay was developed and qualified for measurement of the example compound in rat plasma. […] The intra-day accuracy and precision were evaluated by analysis of each 80 ng/mL, 40 ng/mL, and 8 ng/mL assay control (n=5 at each concentration) on the same day. Accuracy was calculated as a percentage ratio of measured concentration to nominal concentration and precision was expressed as the coefficient of variation. […] accuracy and precision were evaluated for each 80 ng/mL, 40 ng/mL, and 8 ng/mL assay control over 10 different runs (n=26 for each control sample). […]

human κ opioid receptor [9] = biological target: T3, human κ opioid receptor; assay: [35S]GTPγS binding assay, kappa (compound alone / with U50,488); type: biochemical; set-up: expressed in transfected cells
From the text: Part 4. […] Binding was initiated by the addition of the membranes.

human μ opioid receptor [10] = biological target: T2, human μ opioid receptor; assay: [35S]GTPγS binding assay, mu (compound alone / with DAMGO)
Experimental: In a final volume of 0.5 mL, 12 different concentrations of each test compound were incubated with 15 μg (κ), 10 μg (δ) or 7.5 μg (μ) of CHO cell membranes that stably expressed either the human κ or μ opioid receptor. The assay buffer consisted of 50 mM Tris-HCl, pH 7.4, 3 mM MgCl2, 0.2 mM EGTA, 3 μM GDP, and 100 mM NaCl. The final concentration of [35S]GTPγS was 0.080 nM. […] Binding was initiated by the addition of the membranes. […] Data are the mean Emax and EC50 values±S.E.M. from at least three separate experiments, performed in triplicate.

antinociception = conditions: cited from earlier work; for duration of action: 1 mg/kg ip in mice
μ opioid receptors = conditions: cited from earlier work
κ opioid receptors = conditions: cited from earlier work
[11] = read-out: [3H]U69,593 (K) Ki, CHO membranes, human receptor, mean ± SEM
[12] = read-out: [3H]DAMGO (μ) Ki, CHO membranes, human receptor, mean ± SEM

T1 sequence (P41143 whole entry): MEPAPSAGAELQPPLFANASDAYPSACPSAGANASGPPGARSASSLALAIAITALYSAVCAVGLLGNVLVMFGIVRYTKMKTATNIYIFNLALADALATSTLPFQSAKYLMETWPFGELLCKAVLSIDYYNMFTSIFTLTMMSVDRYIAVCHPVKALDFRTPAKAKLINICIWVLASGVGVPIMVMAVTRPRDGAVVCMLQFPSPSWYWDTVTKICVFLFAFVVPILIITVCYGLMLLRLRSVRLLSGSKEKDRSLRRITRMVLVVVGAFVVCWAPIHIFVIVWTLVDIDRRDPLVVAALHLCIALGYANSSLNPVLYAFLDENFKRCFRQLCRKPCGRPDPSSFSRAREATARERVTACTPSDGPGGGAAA
T2 sequence (P35372 whole entry): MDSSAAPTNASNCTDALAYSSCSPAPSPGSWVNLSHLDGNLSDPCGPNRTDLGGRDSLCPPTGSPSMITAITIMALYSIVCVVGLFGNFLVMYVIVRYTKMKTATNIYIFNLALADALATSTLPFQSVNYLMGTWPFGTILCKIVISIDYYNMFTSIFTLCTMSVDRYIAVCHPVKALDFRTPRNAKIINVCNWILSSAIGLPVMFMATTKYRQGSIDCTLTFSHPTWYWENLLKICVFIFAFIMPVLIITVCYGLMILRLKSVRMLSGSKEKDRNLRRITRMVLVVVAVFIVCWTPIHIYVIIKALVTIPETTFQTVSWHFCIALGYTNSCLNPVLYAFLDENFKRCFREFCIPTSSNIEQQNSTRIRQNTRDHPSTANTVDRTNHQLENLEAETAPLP
T3 sequence (P41145 whole entry): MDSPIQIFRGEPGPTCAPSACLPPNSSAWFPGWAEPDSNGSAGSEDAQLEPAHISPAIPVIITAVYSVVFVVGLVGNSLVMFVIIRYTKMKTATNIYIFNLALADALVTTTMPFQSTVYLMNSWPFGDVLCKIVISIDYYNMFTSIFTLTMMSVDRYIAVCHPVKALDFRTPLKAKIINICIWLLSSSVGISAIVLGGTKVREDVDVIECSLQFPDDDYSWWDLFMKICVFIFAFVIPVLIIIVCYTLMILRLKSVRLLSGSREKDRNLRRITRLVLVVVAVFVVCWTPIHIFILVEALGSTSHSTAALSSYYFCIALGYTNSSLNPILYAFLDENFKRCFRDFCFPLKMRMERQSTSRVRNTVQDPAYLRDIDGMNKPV

`CC1C2Cc3ccc(C(N)=O)cc3C1(C)CC[N+]2(C)CC1CC1` (stereo not shown) [Compound 10, 8-Carboxamido-cyclazocine methiodide] gave a melting point of 237 to 238 °C, a Ki (human δ opioid receptor [1]) of 360 ± 6.5 nM and a Ki (human μ opioid receptor [2]) of 1.4 ± 0.19 nM. The Ki (human κ opioid receptor [3]) was 17 ± 1.2 nM, the “K: δ” value (human κ opioid receptor [3]) was 21 and the “K: μ” value (human κ opioid receptor [3]) was 0.082.
With `C[N+]1(CC2CC2)CC[C@]23c4c5ccc(C(N)=O)c4O[C@H]2C(=O)CC[C@@]3(O)[C@H]1C5` (stereo partly shown) [Compound 4, 3-Carboxamido-naltrexone methiodide] the melting point was 189 to 190 °C, the “[3H]Naltrindole (δ) inhibition” value (human δ opioid receptor [4]; @ 10 μm) was 31% inh. @ 10 μm and the “K: δ” value (human κ opioid receptor [3]) was 143. For the same compound, the “K: μ” value (human κ opioid receptor [3]) was 0.18 and the Ki (human κ opioid receptor [3]; [11]) was 210 ± 22 nM.
With `C[N+]1(CC2CC2)CC[C@]23CC(=O)CC[C@@]2(O)[C@H]1Cc1ccc(C(N)=O)c(O)c13` (stereo partly shown) [Compound 6, 3-Carboxamido-4-hydroxy-naltrexone methiodide] the “activity in blocking PGE2-induced diarrhea” value ([5]; mice, doses of 1-10 mg/kg, both routes (IP, PO)) was “very good activity”, the “reversal of the effects of morphine on PGE2-induced diarrhea” value ([5]; mice, each route, IP and PO, FIG. 1) was “dose-dependent reversal of the effects of morphine” and the “blocking the analgesic effects of morphine, tail flick” value ([6]; mice, IP route) was “moderately effective”. The “blocking the effects of morphine, tail flick” value ([6]; mice, oral administration) was “much less effective”, the “effect on response to morphine, tail flick” value ([6]; mice, 10 mg/kg) was “did not affect the response to morphine” and the “effect on response to morphine, tail flick” value ([6]; mice, maximum dose 30 mg/kg, FIG. 2) was “only partially reverse”. For the same compound, the “blocking the analgesic effects of morphine, hot plate” value ([7]; mice, IP route, FIG. 3) was “marginally effective”, the “change from the baseline morphine response, hot plate” value ([7]; mice, IP, 3 mg/kg) was 20-25% and the “effect on the response to morphine, hot plate” value ([7]; mice, orally, doses up to 30 mg/kg) was “no effect”. For the same compound, the absorption [8] was “low”, the melting point was 197 to 198 °C and the Ki (human δ opioid receptor [4]; read-out: [3H]Naltrindole (δ) Ki, CHO membranes, human receptor, mean ± SEM) was 280 ± 21 nM. The “agonist properties at the κ opioid receptor” value (human κ opioid receptor [9]; compound alone) was “did not display any agonist properties”, the Emax (human κ opioid receptor [9]; compound alone, Mean ± S.E, read-out: Kappa Cmpd. Alone Emax) was 3 ± 2.6% and the IC50 (human κ opioid receptor [9]; with 100 nM U50,488, Mean ± S.E) was 7800 ± 530 nM. The Ki (human μ opioid receptor [2]; [12]) was 1.3 ± 0.13 nM, the “K: μ” value (human κ opioid receptor [3]) was 0.17 and the Ki (human κ opioid receptor [3]; [11]) was 7.7 ± 0.9 nM. The Emax (human μ opioid receptor [10]; read-out: Mu Cmpd. Alone Emax) was -0.28 ± 0.39%, the IC50 (human μ opioid receptor [10]; read-out: Mu With DAMGO IC50, with 200 nM DAMGO, Mean ± S.E) was 52 nM and the “Mu With DAMGO Imax” value (human μ opioid receptor [10]; with 200 nM DAMGO, Mean ± S.E) was 96 ± 1.2%.
For `C[N+]1(CC2CC2)CC[C@]23c4c5ccc(O)c4O[C@H]2C(=O)CC[C@@]3(O)[C@H]1C5` (stereo partly shown) [Compound 2, Naltrexone Methiodide, reference compound], the Ki (human μ opioid receptor [2]; [12]) was 2 ± 0.27 nM, the “K: δ” value (human κ opioid receptor [3]) was 143 and the “K: μ” value (human κ opioid receptor [3]) was 0.32. For the same compound, the Ki (human κ opioid receptor [3]; [11]) was 6.3 ± 0.46 nM.
In the case of `CC1C2Cc3ccc(O)cc3C1(C)CC[N+]2(C)CC1CC1` (stereo not shown) [Compound 8, Cyclazocine methiodide], the melting point is reported as 165 to 168 °C, the “K: δ” value (human κ opioid receptor [3]) is reported as 95 and the “K: μ” value (human κ opioid receptor [3]) is reported as 0.2.
In the case of `C[C@H]1[C@H]2Cc3ccc(O)cc3[C@]1(C)CCN2CC1CC1` [cyclazocine], the duration of action (antinociception) is given as 2 h.
In the case of `C[C@H]1C2Cc3ccc(C(N)=O)cc3[C@@]1(C)CCN2CC1CC1` [Compound 8-CAC, 8-carboxamidocyclazocine], the “affinity for μ opioid receptors” value (μ opioid receptors) is listed as “high affinity”, the “affinity for κ opioid receptors” value (κ opioid receptors) is listed as “high affinity” and the duration of action (antinociception) is listed as 15 h. For the same compound, the antinociception activity (antinociception; in vivo, mice) was “high antinociception activity”.
For `C[N@+]1(CC2CC2)CC[C@]23CCCC[C@@]2(O)[C@H]1Cc1ccc(C(N)=O)c(O)c13.[Cl-]` [Compound 14, (17R)-17-(Cyclopropylmethyl)-4,14-dihydroxy-17-methylmorphinan-17-ium-3-carboxamide chloride], the “effect on morphine's ability to block PGE2-induced diarrhea” value ([5]; IP administration at 3 mg/kg) was “reduces morphine's ability to block PGE2-induced diarrhea”, the “difference from baseline, tail flick” value ([6]; even at 30 mg/kg) was “no statistical difference from baseline” and the “central activity (hot plate)” value ([7]; hot plate test) was “poor central activity”. The “dose at which a statistical difference from baseline is first seen, hot plate” value ([7]; hot plate test) was 30 mg/kg and the “hot plate dose relative to dose required in the PGE2 test” value ([7]; hot plate vs PGE2 test) was 3 to 10 times higher dose.
